According to the NIST ThermoML archive (doi:10.1016/j.jct.2014.10.014):

Assay: mn = molality of the nth substance listed, in mol/kg
Conditions: 100 kPa, Liquid, Alternating current cell with electrodes

C[C@H](CCC(=O)[O-])[C@H]1CC[C@H]2[C@@H]3[C@H](O)C[C@@H]4C[C@H](O)CC[C@]4(C)[C@H]3C[C@H](O)[C@]12C.[Na+] [sodium cholate] + O
electrical conductivity [S/m]
Conditions	293.15 K	298.15 K	303.15 K	308.15 K	313.15 K	318.15 K
m1 = 0.001	0.0066	0.007	0.005	0.007	0.0075	0.0115
m1 = 0.002	0.0129	0.014	0.0115	0.014	0.014	0.0175
m1 = 0.003	0.019	0.0204	0.018	0.02	0.02	0.0235
m1 = 0.004	0.0254	0.0267	0.0242	0.0263	0.0265	0.0305
m1 = 0.005	0.031	0.0326	0.0308	0.0332	0.0332	0.0369
m1 = 0.006	0.0378	0.0386	0.0373	0.0397	0.0395	0.043
m1 = 0.007	0.0434	0.0442	0.0439	0.0454	0.0466	0.0497
m1 = 0.008	0.0503	0.0498	0.0503	0.0524	0.0533	0.0565
m1 = 0.009	0.0558	0.0562	0.057	0.0584	0.06	0.0633
m1 = 0.01	0.0628	0.063	0.0635	0.0653	0.0668	0.0705
m1 = 0.011	0.0689	0.0687	0.07	0.0735	0.0745	0.0779
m1 = 0.012	0.0754	0.0753	0.076	0.0798	0.0815	0.0855
m1 = 0.013	0.0827	0.0825	0.082	0.0861	0.0885	0.093
m1 = 0.014	0.0881	0.088	0.0873	0.0911	0.0939	0.0985
m1 = 0.015	0.0929	0.0928	0.093	0.0967	0.0995	0.104
m1 = 0.016	0.0985	0.097	0.0981	0.102	0.104	0.111
m1 = 0.017	0.103	0.101	0.103	0.108	0.11	0.117
m1 = 0.018	0.107	0.105	0.108	0.113	0.115	0.122
m1 = 0.019	0.111	0.109	0.113	0.118	0.12	0.127
m1 = 0.02	0.115	0.112	0.118	0.123	0.126	0.132

C[C@H](CCC(=O)[O-])[C@H]1CC[C@H]2[C@@H]3CC[C@@H]4C[C@H](O)CC[C@]4(C)[C@H]3C[C@H](O)[C@]12C.[Na+] [sodium deoxycholate] + O
electrical conductivity [S/m]
Conditions	293.15 K	298.15 K	303.15 K	308.15 K	313.15 K	318.15 K
m1 = 0.0005	0.003	0.0035	0.004	0.0035	0.0035	0.004
m1 = 0.001	0.0065	0.0065	0.007	0.0065	0.0065	0.007
m1 = 0.0015	0.0095	0.0095	0.01	0.0095	0.01	0.01
m1 = 0.002	0.0125	0.0125	0.013	0.0124	0.0128	0.013
m1 = 0.0025	0.0155	0.0155	0.016	0.0153	0.016	0.016
m1 = 0.003	0.0185	0.0182	0.0191	0.0185	0.019	0.019
m1 = 0.0035	0.021	0.0213	0.0218	0.022	0.022	0.022
m1 = 0.004	0.0242	0.0243	0.0248	0.025	0.0245	0.025
m1 = 0.0045	0.027	0.0275	0.0274	0.028	0.028	0.028
m1 = 0.005	0.03	0.0305	0.0305	0.031	0.0305	0.031
m1 = 0.0055	0.033	0.0335	0.0335	0.0335	0.0335	0.034
m1 = 0.006	0.0355	0.036	0.0358	0.0365	0.0365	0.037
m1 = 0.0065	0.038	0.0385	0.038	0.0385	0.0385	0.04
m1 = 0.007	0.0399	0.0405	0.0405	0.041	0.0405	0.0425
m1 = 0.0075	0.042	0.0425	0.043	0.0435	0.0425	0.045
m1 = 0.008	0.044	0.0445	0.0455	0.0455	0.045	0.0475
m1 = 0.0085	0.046	0.0465	0.048	0.048	0.0475	0.05
m1 = 0.009	0.048	0.0485	0.0499	0.05	0.0499	0.0525
m1 = 0.0095	0.05	0.051	0.052	0.0525	0.0519	0.055
m1 = 0.01	0.0518	0.053	0.054	0.055	0.0539	0.0575
